Earlier results as cited in patent US6127388A, “Azetidine, pyrrolidine and piperidine derivatives as 5-HT1D receptor agonists” (Merck Sharp & Dohme Ltd., priority 1996, dated 2000).

Conditions: therapeutic doses

In the case of `CNS(=O)(=O)Cc1ccc2[nH]cc(CCN(C)C)c2c1` [sumatriptan], the “adverse cardiovascular events in humans” value is given as “certain adverse cardiovascular events”.
